Reference: patent US20260109674A1, “ALLOSTERIC MODULATION OF MUSCARINIC ACETYLCHOLINE RECEPTOR EFFICACY” (The University of Toledo, priority 2022, published 2026)
Where two headings read alike, the source gives them in different places.

Tests used:
[1] = target: T1, M1 muscarinic receptors expressed in CHO cells (Homo sapiens, UniProt P11229); assay: [3H]-arachidonic acid release screen with and without ACh and modulator; type: cell-based; details: for Modulation of ACh activity (in words): [3H]AA release, modulator 10 μM
T1 construct: expressed in transfected cells; host or cells: CHO (CHO-hM1, stably transfected)
T1 sequence (P11229 1-460): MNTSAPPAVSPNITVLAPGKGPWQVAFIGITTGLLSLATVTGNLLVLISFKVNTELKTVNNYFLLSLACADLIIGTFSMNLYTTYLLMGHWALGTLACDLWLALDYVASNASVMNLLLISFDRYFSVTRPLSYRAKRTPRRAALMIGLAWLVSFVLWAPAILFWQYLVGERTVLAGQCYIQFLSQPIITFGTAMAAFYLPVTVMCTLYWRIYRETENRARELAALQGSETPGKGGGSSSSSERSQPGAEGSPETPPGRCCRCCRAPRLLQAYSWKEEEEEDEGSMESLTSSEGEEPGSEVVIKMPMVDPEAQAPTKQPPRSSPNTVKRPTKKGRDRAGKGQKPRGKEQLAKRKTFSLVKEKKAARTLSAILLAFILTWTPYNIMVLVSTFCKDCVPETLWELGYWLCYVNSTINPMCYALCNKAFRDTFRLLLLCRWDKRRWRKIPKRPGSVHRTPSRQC
Description: CHO cells expressing human M1 muscarinic receptors were cultured at 37° C. in a 5% CO2 atmosphere in F12 medium supplemented with 5% fetal bovine serum, 100 units/mL penicillin, and 100 μg/mL streptomycin.
Measurement of [^3H]AA release was performed. Stably transfected CHO-hM1 or CHO-hM3 cells were seeded on 24-well plates (Greiner Bio-One GmbH, Frickenhausen, Germany) at a density of 5.0×10^4 cells/well in 0.5 ml of F-12 medium. Cells were incubated until they attached (approximately 3 h), followed by the addition of [^3H]AA to a final concentration of 0.05 μCi of [^3H]AA per well. The cells were then grown for 16 to 20 h before the assay was performed. [^3H]AA release was measured in Eagle's basal medium with 20 mM HEPES and 2 mg/ml fatty acid-free bovine serum albumin (EM-BSA). Cells were rinsed twice with EM-BSA, followed by the addition of EM-BSA media containing experimental agents and incubated for 1 h at 37° C. The assay was terminated by aspiration of the media, and the amount of [^3H]AA released was determined by liquid scintillation counting (Beckman-Coulter LS6500).
For some assays, pretreatment with phenoxybenzamine (POB) was employed, as indicated, to reduce the number of available receptors per cell. Stock POB was made up at 10 mM in ethanol and stored at −20° C. Each well was pretreated with 0.5 ml of the appropriate concentration in PBS with 1 mM CaCl2 and 1 mM MgCl2 (PBS++) for 30 min at 37° C., followed by 5 washes with PBS++. After pretreatment, the normal protocol was followed as above.
Tabulated [^3H]AA release data are represented as a fraction of maximal release in the presence of 100 μM ACh or as the fraction of release elicited by the appropriate concentration of ACh alone, as indicated dose-response curves were normalized to the maximal response of ACh without allosteric ligand. Some response curves were analyzed using the empirical four-parameter equation: […]
Disintegration per minute (DPM) values for a single compound were obtained in triplicate, and each compound was evaluated on three separate 24-well plates. The mean values for each condition from each of the three 24-well plates were used for the statistical analysis. The baseline mean was subtracted from each value, then normalized to the mean response produced by 100 μM ACh (set at 1.0). Statistical analyses were completed on the normalized values via one-way repeated measures ANOVA with Tukey's post hoc test. Statistically significant differences are noted as follows: *, p<0.05; **, p<0.01; ***, p<0.001.

[2] = system: wild-type zebrafish larvae; assay: General locomotor assay in zebrafish larvae (locomotor activity, repetitive behaviors); type: in vivo, Danio rerio; details: Table 3; tested at 1 μM due to toxicity at 10 μM (footnote a)
Description: Five days post fertilization (dpf) zebrafish larvae were exposed to a range of nonlethal concentrations of the compounds in a 24-well plate with appropriate controls. The movement of each larval zebrafish was monitored with the Noldus behavior recording system (Noldus Information Technology, Leesburg VA) and quantified using EthoVision® XT 15 software (Noldus Information Technology, Leesburg VA). The plate was immediately placed in the incubator for a 30-minute exposure period. After 30 minutes, the plate was transferred to the Noldus system and swimming behavior was recorded in 100% light for 30 minutes to measure spontaneous swimming behavior. The light was switched off for 10 minutes (dark period) and then switched on for 10 minutes (light period), which was then repeated for two additional cycles. In total, the larvae were exposed to three cycles of alternating 10-minute dark and light periods (100% darkness-to-100% light). […]
All data for exposure and the behavioral end points were analyzed by one-way ANOVA (factor: drug conc) followed by a Dunnett's multiple comparisons test for post hoc significance between drug concentration and control group. Statistically significant differences are noted as follows: *, p<0.05; **, p<0.01; ***, p<0.001.

[3] = system: wild-type zebrafish larvae; assay: Maximum tolerated concentration (MTC) determination in zebrafish larvae; type: in vivo, Danio rerio; details: after 24-hour exposure; Table 3
Description: Determination of maximum tolerated concentration was completed by placing 5 days post fertilization (dpf) wild-type zebrafish larvae in a 24 well plate at 6 fish per well, and one compound concentration per well. […] Death was determined by the absence of heartbeat. Additional endpoints were used to assess toxicity at non-lethal concentrations such as startle capacity (poke stimulus), abnormalities in swimming behavior (loss of dorsoventral balance), and gross morphological deformities (bent body). […] The MTC determination was used to select three doses of each compound (low, medium, high dose) to be used in behavioral assays.

[4] = 10 μM modulator, 0.1 μM ACh, Table 1
[5] = 10 μM modulator, 100 μM ACh, Table 1

Row | Structure (SMILES) | Ratio of response of ACh with modulator to response of ACh alone, 0.1 μM ACh [1] | Ratio of response of ACh with modulator to response of ACh alone, 100 μM ACh [1] | Stimulation of [3H]AA release, No ACh (fraction of stimulation above the control) ([1]; 10 μM modulator, Table 1) | Modulation of ACh activity (in words) [1] | Angular Velocity [2] | Total Distance Moved [2] | Variance of Turn Angle [2] | Maximum Tolerated Concentration [3] [µM] | Ratio of response of ACh with modulator to response of ACh alone, 0.1 μM ACh [1, 4] | Ratio of response of ACh with modulator to response of ACh alone, 100 μM ACh [1, 5]
1 | CCCCc1oc2ccccc2c1C(=O)c1cc(I)c(OCC[N+](CC)(CC)CC)c(I)c1 [Compound 2, N-ethylamiodarone, reference compound] | 0.17 ± 0.04 | 0.50 ± 0.03 | 0.04 ± 0.02 | NAM of mAChR efficacy | 128.9 ± 18.5 % of control | 95.8 ± 11.0 % of control | 97.6 ± 10.3 % of control | 1 | – | –
2 | CCCCc1oc2ccccc2c1C(=O)c1cc(I)c(O)c(I)c1 [Compound 3, reference compound] | – | – | 0.02 ± 0.00 | completely inactive | 101.8 ± 19.2 % of control | 145.4 ± 21.7 % of control | 93.4 ± 9.4 % of control | 3 | 0.42 ± 0.00 | 0.81 ± 0.07
3 | CCCCc1oc2ccccc2c1C(=O)c1ccc(O)cc1 [Compound 4, reference compound] | 0.49 ± 0.09 | 0.72 ± 0.04 | 0.03 ± 0.02 | completely inactive | 105.7 ± 14.8 % of control | 56.7 ± 9.3 % of control | 115.8 ± 12.4 % of control | 0.3 | – | –
4 | COc1c(F)cc(CN2C(=O)C(=O)c3ccccc32)cc1F [Compound 8g, 1-(3,5-difluoro-4-methoxybenzyl)indoline-2,3-dione] | – | – | 0.03 ± 0.01 | – | – | – | – | 30 | 1.33 ± 0.03 | 0.94 ± 0.02
5 | COc1ccc(CN2C(=O)C(=O)c3ccccc32)cc1F [Compound 8h, 1-(3-fluoro-4-methoxybenzyl)indoline-2,3-dione] | – | – | 0.04 ± 0.01 | – | – | – | – | 30 | 1.17 ± 0.02 | 1.03 ± 0.01
6 | O=C1C(=O)N(Cc2cc(F)c(F)c(F)c2)c2ccccc21 [Compound 8i, 1-(3,4,5-trifluorobenzyl)indoline-2,3-dione] | – | – | 0.07 ± 0.01 | – | – | – | – | 10 | 1.39 ± 0.06 | 1.05 ± 0.02
